Source: patent publication US7098247B2, “Arylene-carboxylic acid (2-amino-phenyl)-amide derivatives” (Hoffmann-La Roche Inc., priority 2002, dated 2006)

Test system: histone deacetylase (HDAC)
Test: cellular acetylation assay (acetylation of histones monitored in PC3 cells, ELISA)
Type: cell-based
Settings: PC3 human prostate carcinoma cells; compound 1 uM; 24 h incubation; antibodies against acetylated histone H3 or H4
Method: Therein, acetylation of histones is monitored in PC3 cells. High acetylation means inhibition of histone deacetylase by compounds. Cell viability is monitored in parallel to estimate the cytotoxicity of the compounds.
PC3 cells, human prostate carcinoma cells, are seeded as 1800 cells per well of 384-well microtiterplate in RPMI 1640 (including 5% FCS, 2 mM glutamine and pen/strep). After 48 h at 37° C., pre-diluted compounds are added at a final concentration of 1 uM. Compounds are pre-diluted 1:10 in dimethyl sulfoxide (DMSO) or medium resulting in a final concentration of DMSO of 0.5%.
After 24 h, incubation the cell viability is determined by adding cell proliferation reagent WST1. Another 60 min. later, the optical density (OD) is measured (450 nm versus 690 nm).
After WST1 assay, the cell layer is prepared for the ELISA reaction. Medium is aspirated and cells are fixed in ethanol at −20° C. for 60 min. After washing with PBS/Tween, the blocking solution (PBS/ 5% FCS/Tween) is added and the cell layer is washed again. Antibodies against histone H3 or H4 (Anti-Acetylated Histone (rabbit polyclonal IgG), Upstate Biotechnologie) are added at a dilution of 1:200 for 60 min at 37° C. As a second antibody, goat anti-rabbit IgG(H+L) human IgG adsorbed-HRP conjugate (Dako) is used (1:2000 diluted). Cells are washed 3 times and the peroxidase substrate ABTS is allowed to react for 30–60 min at 37° C. Oxalic acid stops the reaction, and the OD is measured at 405 nm.
The percentage of acetylation is calculated after subtraction of blank O.D.s: […]

Structure (SMILES) | cell acetylation (PC3, 1 μM) [% of control]
CCCCCC(C)NC(=O)NCc1ccc(C(=O)Nc2ccccc2N)cc1 (stereo not drawn) [Example 6-25, N-(2-Amino-phenyl)-4-[3-(1-methyl-hexyl)-ureidomethyl]-benzamide] | 192 % of control
CC(C)OCCCNC(=O)NCc1ccc(C(=O)Nc2ccccc2N)cc1 [Example 6-28, N-(2-Amino-phenyl)-4-[3-(3-isopropoxy-propyl)-ureidomethyl]-benzamide] | 177 % of control
CCCC(=O)NCc1ccc(C(=O)Nc2ccccc2N)s1 [Example 4-6, 5-(Butyrylamino-methyl)-thiophene-2-carboxylic acid (2-amino-phenyl)-amide] | 238 % of control
CCC(C)CNC(=O)NCc1ccc(C(=O)Nc2ccccc2N)s1 (stereo not drawn) [Example 6-8, 5-[3-(2-Methyl-butyl)-ureidomethyl]-thiophene-2-carboxylic acid (2-amino-phenyl)-amide] | 198 % of control
CCOCCCNC(=O)NCc1ccc(C(=O)Nc2ccccc2N)cc1 [Example 6-26, N-(2-Amino-phenyl)-4-[3-(3-ethoxy-propyl)-ureidomethyl]-benzamide] | 179 % of control
C=CCNC(=O)NCc1ccc(C(=O)Nc2ccccc2N)s1 [Example 6-12, 5-[(3-Allyl-ureido)-methyl]-thiophene-2-carboxylic acid (2-amino-phenyl)-amide] | 170 % of control
Nc1ccccc1NC(=O)c1ccc(CNC(=O)CC2C=CCC2)cc1 (stereo not drawn) [Example 4-31, N-(2-Amino-phenyl)-4-[(2-cyclopent-2-enyl-acetylamino)-methyl]-benzamide] | 176 % of control
Nc1ccccc1NC(=O)c1ccc(CNC(=O)C2CCCC2)s1 [Example 4-1, 5-[(Cyclopentanecarbonyl-amino)-methyl]-thiophene-2-carboxylic acid (2-amino-phenyl)-amide] | 170 % of control
C=CCNC(=O)NCc1ccc(C(=O)Nc2ccccc2N)cc1 [Example 6-27, 4-[(3-Allyl-ureido)-methyl]-N-(2-amino-phenyl)-benzamide] | 175 % of control
CCOCC(=O)NCc1ccc(C(=O)Nc2ccccc2N)s1 [Example 4-3, 5-[(2-Ethoxy-acetylamino)-methyl]-thiophene-2-carboxylic acid (2-amino-phenyl)-amide] | 194 % of control
Nc1ccccc1NC(=O)c1ccc(CNC(=O)NCC2CC2)cc1 [Example 6-29, N-(2-Amino-phenyl)-4-(3-cyclopropylmethyl-ureidomethyl)-benzamide] | 187 % of control
CC(C)CNC(=O)NCc1ccc(C(=O)Nc2ccccc2N)s1 [Example 6-13, 5-(3-Isobutyl-ureidomethyl)-thiophene-2-carboxylic acid (2-amino-phenyl)-amide] | 178 % of control
CCCCCNC(=O)NCc1ccc(C(=O)Nc2ccccc2N)cn1 [Example 6-38, N-(2-Amino-phenyl)-6-[(3-pentyl-ureido)-methyl]-nicotinamide] | 178 % of control
CN(C)CC(C)(C)CNC(=O)NCc1ccc(C(=O)Nc2ccccc2N)cc1 [Example 6-19, N-(2-Amino-phenyl)-4-[3-(3-dimethylamino-2,2-dimethyl-propyl)-ureidomethyl]-benzamide] | 205 % of control
CC(=O)Nc1ccc(C(=O)Nc2ccccc2N)cc1 [CI 994, reference compound] | 152 % of control
